From the supplement of paper PMC10307832

Key:
Assay in all cases: relative viability (nuclei count vs DMSO), 5 days (fraction); higher = more cells survive
[1] = compound: C1CC2=C(C1)C=C(C=C2)OC3=NC(=C4C(=N3)N(C=N4)CC5=CC=C(C=C5)C6=CC=CC=C6)N[C@@H](CC7=CC=CC=C7)CO [QS11] + NC(=O)Nc1cc(-c2cccc(F)c2)sc1C(=O)N[C@H]1CCCNC1 [AZD7762] (partner 0.2 µM)
Summary of the method: (§1)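 Lung cancer cell lines were pin-tool dosed in 1536-well plates on the day after seeding, with either a lone drug or a fixed anchor-drug dose plus five library-drug doses (not always all listed) in √10 steps. Nuclei were counted on 4× images after 5 days. Relative viability is the ratio of treated-well to vehicle-well nuclei counts, with each value a median of duplicate plates.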

[2] = compound: CC1=C(C=C(C=C1)NC(=O)C2=CC(=CC=C2)C(C)(C)C#N)NC3=CC4=C(C=C3)N=CN(C4=O)C [AZ628] + O=C(CCCCCCC(=O)Nc1ccccc1)NO [Vorinostat] (partner 1 µM)
Summary of the method: as §1

[3] = compound: C1CC2=C(C1)C=C(C=C2)OC3=NC(=C4C(=N3)N(C=N4)CC5=CC=C(C=C5)C6=CC=CC=C6)N[C@@H](CC7=CC=CC=C7)CO [QS11] + O=C(c1cc(Cc2n[nH]c(=O)c3ccccc23)ccc1F)N1CCN(C(=O)C2CC2)CC1 [Olaparib] (partner 8 µM)
Summary of the method: as §1

[4] = compound: C1CC2=C(C1)C=C(C=C2)OC3=NC(=C4C(=N3)N(C=N4)CC5=CC=C(C=C5)C6=CC=CC=C6)N[C@@H](CC7=CC=CC=C7)CO [QS11] + O=C(CCCCCCC(=O)Nc1ccccc1)NO [Vorinostat] (partner 1 µM)
Summary of the method: as §1

Cell Line	relative viability ([1]; first compound 0.08 µM)	relative viability ([1]; first compound 0.253 µM)	relative viability ([1]; first compound 0.8 µM)	relative viability ([1]; first compound 2.53 µM)	relative viability ([1]; first compound 8 µM)	relative viability ([2]; first compound 0.08 µM)	relative viability ([2]; first compound 0.253 µM)	relative viability ([2]; first compound 0.8 µM)	relative viability ([2]; first compound 2.53 µM)	relative viability ([2]; first compound 8 µM)	relative viability ([3]; first compound 0.08 µM)	relative viability ([3]; first compound 0.253 µM)	relative viability ([3]; first compound 0.8 µM)	relative viability ([3]; first compound 2.53 µM)	relative viability ([3]; first compound 8 µM)	relative viability ([4]; first compound 0.253 µM)	relative viability ([4]; first compound 0.8 µM)	relative viability ([4]; first compound 2.53 µM)	relative viability ([4]; first compound 8 µM)	relative viability ([4]; first compound 0.08 µM)
PC-14	0.276	0.278	0.369	0.318	0.443	0.762	0.745	0.632	0.677	0.232	0.253	0.339	0.249	0.272	0.38	0.839	0.695	0.808	0.69	
EPLC-272H		0.202	0.246	0.278	0.247	0.557	0.518	0.4	0.332	0.274	0.707	0.888	0.716	0.808	0.505	0.55	0.442	0.479	0.276	0.371
NCI-H2228						0.697	0.684	0.644	0.507	0.432	0.586	0.663	0.727	0.648	0.993	0.535	0.61	1.17	0.741	0.62
LC-2-ad	0.726	0.865	0.666	0.926	1.03	0.78	0.865	0.796	0.74	0.656	0.668	0.719	0.551	0.706	0.781	0.739	0.531	0.671	0.74	0.748
HOP-62	0.556	0.611	0.538	0.608	0.582	0.641	0.701	0.641	0.432	0.289	0.477	0.46	0.31	0.319	0.382	0.564	0.533	0.416	0.447	0.556
UMC-11						0.442	0.336	0.361	0.328	0.36	0.324	0.41	0.268	0.329	0.395	0.373	0.462	0.37	0.459	0.385
Calu-6											0.626	0.613	0.603	0.638	0.59					
HCC-44	1.11	0.995	0.65	1.02	1.02	1.16	1.17	1.15	1.02	0.491	1.05	1.09	0.597	0.989	0.987	1.05	0.557	0.98	1.01	1.14
NCI-H727	0.694	0.581	0.584	0.727	0.612	1.25			0.891	0.352	0.653	0.661	0.654	0.589	0.753	1.16	1.29	1.07	1.37	1.28
A-427	0.673	0.744		0.856	1.05	1.02	0.811	0.82	0.787	0.437	0.756	0.67		0.656	0.559	0.844		0.877	0.844	0.902
SK-MES-1						1.07	1.18	1.04	1.1	0.572	0.672	0.677	0.717	0.75	0.804	1.01	0.987	1.23	1.08	1.25
HCC-827	0.194	0.201	0.234	0.307	0.187	0.963	0.795	0.906	0.921	0.552	0.587	0.712	0.656	0.775	0.606	0.927	0.672	0.944	0.899	0.749
EKVX	0.693	0.743	0.627	0.649	0.755	0.952	0.698	0.848	0.579	0.53	0.829	0.768	0.715	0.822	1.01	0.625	0.592	0.567	0.545	0.642
SW 900	0.603	0.549	0.611	0.502	0.504	0.622	0.463	0.573	0.426	0.534	0.941	1.03	0.615	0.739	0.511	0.378	0.452	0.457	0.348	0.295
NCI-H661						0.831	0.916	0.818	0.778	0.743	0.708	0.791	0.637	0.745	0.71	0.805	0.632	0.804	0.672	0.786
NCI-H1975	0.668	0.629	0.849	0.874	0.919	0.62	0.668	0.679	0.658	0.42	0.814	0.891	0.814	1.07	0.688	0.783	0.752	0.795	0.654	0.669
NCI-H1944	0.49	0.519		0.421	0.39	0.613	0.547	0.508	0.468	0.444	0.395	0.482		0.397	0.394	0.491		0.424	0.505	0.485
SK-LU-1						0.595	0.896	0.726	0.758	0.611	0.354	0.442	0.466	0.356	0.452	0.849	0.604	0.572	0.614	0.786
NCI-H1755	0.472	0.492	0.42	0.48	0.413	0.78	0.779	0.84	0.755	0.679	0.856	0.876	0.665	0.767	0.648	0.714	0.605	0.515	0.655	0.748
NCI-H650	0.762	0.981	0.775	1.05	0.645	0.454	0.63	0.554	0.673	0.44	0.316	0.364	0.375	0.316	0.418	0.414	0.333	0.416	0.45	0.496

Cell Line	relative viability ([1]; first compound 0.08 µM)	relative viability ([1]; first compound 0.253 µM)	relative viability ([1]; first compound 0.8 µM)	relative viability ([1]; first compound 2.53 µM)	relative viability ([1]; first compound 8 µM)	relative viability ([2]; first compound 0.08 µM)	relative viability ([2]; first compound 0.253 µM)	relative viability ([2]; first compound 0.8 µM)	relative viability ([2]; first compound 2.53 µM)	relative viability ([2]; first compound 8 µM)	relative viability ([3]; first compound 0.08 µM)	relative viability ([3]; first compound 0.253 µM)	relative viability ([3]; first compound 0.8 µM)	relative viability ([3]; first compound 2.53 µM)	relative viability ([3]; first compound 8 µM)	relative viability ([4]; first compound 0.253 µM)	relative viability ([4]; first compound 0.8 µM)	relative viability ([4]; first compound 2.53 µM)	relative viability ([4]; first compound 8 µM)	relative viability ([4]; first compound 0.08 µM)
SW 1573						1.01	0.641	0.592	0.575	0.508	0.615	0.489	0.503	0.416	0.463	0.629	0.52	0.296	0.253	0.912
NCI-H322M	0.525	0.515	0.477	0.53	0.552	1.03	0.856	0.989	0.937	0.816	0.715	0.947	0.802	0.846	1.06	0.997	1.05	1.16	1.41	0.858
ABC-1	0.74	0.776	0.732	0.774	0.843	1.26	0.789	1.27	0.955	1.07	0.655	0.833	0.85	0.563	1.04	0.834	1.02	0.931	1.11	0.886
NCI-H1993	0.793	0.88	0.927	0.771	0.615	0.751	0.774	0.812	0.62	0.547	1.06	1.01	1.22	1.35	1.05	0.629	0.776	0.983	0.498	0.972
NCI-H1355	0.729	0.607	0.666	0.614	0.759	0.69	0.623	0.581	0.598	0.418	0.624	0.732	0.693	0.678	0.75	0.62	0.529	0.597	0.554	0.732
PC-3 [JPC-3]		0.767	0.736	0.792	0.832	1.15	0.7	0.891	0.793	0.709		1.17	1.15	1.24	1.22	0.722	0.709	0.72	0.697	
NCI-H1651	0.445	0.481	0.487	0.458	0.404	0.584	0.491	0.573	0.559	0.561	0.168	0.202	0.171	0.195	0.162	0.518	0.527	0.571	0.564	0.555
NCI-H2023						0.825	0.61	0.542	0.636	0.405	0.414	0.556	0.398	0.514	0.439	0.655	0.527	0.759	0.318	0.417
COR-L23						0.528	0.426	0.491	0.473	0.321	0.302	0.322	0.303	0.271	0.288	0.334	0.469	0.301	0.282	0.397
NCI-H1703		0.12	0.121	0.121	0.168						0.411	0.363	0.597	0.501	0.551					
NCI-H1299											0.955	1.03	0.848	0.928	0.793					
NCI-H1792		0.733	0.595	0.385	0.34							0.442	0.459	0.519	0.394					
A549											0.197	0.339	0.37	0.284	0.574					
NCI-H2009						0.595	0.783	0.568	0.612	0.405	0.596	0.816	0.679	0.613	0.49	0.699	0.635	0.707	0.603	0.757
COR-L 105						0.881	0.886	0.796	0.794	0.654	0.764	0.56	0.674	0.716	0.66	1.03	0.665	0.794	0.716	0.838
EBC-1											0.758	0.813	0.675	0.644	0.68					
IA-LM						1.01	0.962	0.657	0.722	0.21	1	0.924	0.706	0.741	0.78	1.13	0.674	0.806	0.88	0.926
NCI-H520						0.684	0.628	0.702	0.81	0.716	0.347	0.304	0.394	0.313	0.301	0.758	0.639	0.804	0.88	0.758
NCI-H1650						0.733	0.763	0.582	0.505	0.562	0.825	0.816	0.719	0.686	0.898	0.446	0.51	0.476	0.389	0.463
